According to ChEMBL document CHEMBL1131814, “Structure-activity relationship of N-methyl-N-aralkyl-peptidylamines as novel N-type calcium channel blockers” (Bioorg Med Chem Lett, 1999):

Tests used:
[1] = target: Voltage-dependent N-type calcium channel subunit alpha-1B (Homo sapiens, UniProt Q00975); test: Inhibition of N-type calcium channels in IMR-32 human neuroblastoma cells; format: cell-based
Mus musculus [2] = test: Percentage of protection from audiogenic tonic seizures in DBA/2 mice after intravenous administration at a dose of 30 mg/kg; format: functional
Mus musculus [3] = test: Percentage of protection from audiogenic tonic seizures in DBA/2 mice after intravenous administration at a dose of 10 mg/kg; format: functional

Chain of Voltage-dependent N-type calcium channel subunit alpha-1B (Q00975 whole entry): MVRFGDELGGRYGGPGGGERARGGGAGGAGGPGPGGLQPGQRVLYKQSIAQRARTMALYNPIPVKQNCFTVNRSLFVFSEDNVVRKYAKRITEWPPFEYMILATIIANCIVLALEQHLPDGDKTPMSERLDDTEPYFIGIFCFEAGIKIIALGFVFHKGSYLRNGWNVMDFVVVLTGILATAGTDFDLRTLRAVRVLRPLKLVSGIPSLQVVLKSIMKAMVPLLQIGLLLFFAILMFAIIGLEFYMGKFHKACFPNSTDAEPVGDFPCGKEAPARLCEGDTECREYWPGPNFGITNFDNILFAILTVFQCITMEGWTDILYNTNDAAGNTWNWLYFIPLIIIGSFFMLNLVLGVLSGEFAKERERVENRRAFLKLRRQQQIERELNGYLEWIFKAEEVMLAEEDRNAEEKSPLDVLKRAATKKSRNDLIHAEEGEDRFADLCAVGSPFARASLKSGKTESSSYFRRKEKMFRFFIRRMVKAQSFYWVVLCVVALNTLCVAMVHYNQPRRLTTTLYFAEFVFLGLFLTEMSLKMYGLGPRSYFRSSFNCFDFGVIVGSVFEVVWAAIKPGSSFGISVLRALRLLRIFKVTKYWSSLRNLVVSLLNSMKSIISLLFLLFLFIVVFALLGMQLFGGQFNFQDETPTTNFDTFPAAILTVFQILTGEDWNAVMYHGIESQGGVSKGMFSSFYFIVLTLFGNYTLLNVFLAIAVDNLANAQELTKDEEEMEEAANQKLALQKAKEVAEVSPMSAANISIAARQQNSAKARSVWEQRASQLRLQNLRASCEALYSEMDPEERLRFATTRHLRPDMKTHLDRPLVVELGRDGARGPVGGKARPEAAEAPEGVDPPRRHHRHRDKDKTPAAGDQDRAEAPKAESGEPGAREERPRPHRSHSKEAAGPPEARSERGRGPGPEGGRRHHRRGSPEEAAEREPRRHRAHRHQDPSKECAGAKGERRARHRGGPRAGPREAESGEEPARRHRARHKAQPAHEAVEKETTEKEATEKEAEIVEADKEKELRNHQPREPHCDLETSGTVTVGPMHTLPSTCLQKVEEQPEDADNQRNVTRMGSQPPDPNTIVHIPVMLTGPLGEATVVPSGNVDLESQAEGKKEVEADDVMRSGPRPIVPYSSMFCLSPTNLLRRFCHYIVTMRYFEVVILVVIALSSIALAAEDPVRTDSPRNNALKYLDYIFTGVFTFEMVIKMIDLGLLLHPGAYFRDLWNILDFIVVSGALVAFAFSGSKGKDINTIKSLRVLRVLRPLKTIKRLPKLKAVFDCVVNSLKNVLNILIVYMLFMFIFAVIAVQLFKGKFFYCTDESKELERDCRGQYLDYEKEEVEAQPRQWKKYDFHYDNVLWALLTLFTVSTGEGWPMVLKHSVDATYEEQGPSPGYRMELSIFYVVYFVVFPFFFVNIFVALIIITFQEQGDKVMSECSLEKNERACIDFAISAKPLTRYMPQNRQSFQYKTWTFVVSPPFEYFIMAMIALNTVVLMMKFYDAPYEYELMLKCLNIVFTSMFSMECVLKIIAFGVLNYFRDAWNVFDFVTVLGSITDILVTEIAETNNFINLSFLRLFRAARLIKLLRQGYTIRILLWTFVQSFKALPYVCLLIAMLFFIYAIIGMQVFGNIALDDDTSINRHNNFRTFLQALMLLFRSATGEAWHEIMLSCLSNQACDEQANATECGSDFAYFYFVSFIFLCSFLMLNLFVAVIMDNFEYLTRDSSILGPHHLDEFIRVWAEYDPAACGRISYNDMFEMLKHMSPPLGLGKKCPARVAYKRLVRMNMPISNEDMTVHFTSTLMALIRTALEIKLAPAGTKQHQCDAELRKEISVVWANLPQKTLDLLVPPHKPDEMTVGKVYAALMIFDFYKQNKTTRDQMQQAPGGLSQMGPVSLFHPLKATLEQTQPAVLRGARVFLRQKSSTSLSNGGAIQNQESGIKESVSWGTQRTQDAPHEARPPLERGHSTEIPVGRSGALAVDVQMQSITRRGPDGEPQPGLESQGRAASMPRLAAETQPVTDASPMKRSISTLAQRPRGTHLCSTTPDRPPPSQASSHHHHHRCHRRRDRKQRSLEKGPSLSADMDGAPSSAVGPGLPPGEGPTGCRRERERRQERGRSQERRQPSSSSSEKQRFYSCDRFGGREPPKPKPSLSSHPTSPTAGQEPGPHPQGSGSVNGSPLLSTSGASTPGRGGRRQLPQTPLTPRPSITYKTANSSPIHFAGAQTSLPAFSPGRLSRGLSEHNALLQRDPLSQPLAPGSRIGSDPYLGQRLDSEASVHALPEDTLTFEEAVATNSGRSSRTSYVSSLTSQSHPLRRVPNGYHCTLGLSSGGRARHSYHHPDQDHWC

Structure (SMILES) | IC50 [1] | Protection (Mus musculus [2]) | Protection (Mus musculus [3])
CC(C)C[C@@H](C(=O)N[C@@H](Cc1ccc(OC(=O)c2ccccc2)cc1)C(=O)NC(C)(C)C)N(C)Cc1ccco1 | 1600 nM | 60% | 
CC(C)C[C@@H](C(=O)N[C@@H](Cc1ccc(OC(=O)c2ccccc2)cc1)C(=O)NC(C)(C)C)N(C)Cc1ccc(O)cc1 | 1000 nM |  | 
CC(C)C[C@@H](C(=O)N[C@@H](Cc1ccc(OC(=O)c2ccccc2)cc1)C(=O)NC(C)(C)C)N(C)Cc1cccnc1 | 1700 nM |  | 
CC(C)C[C@@H](C(=O)N[C@@H](Cc1ccc(OC(=O)c2ccccc2)cc1)C(=O)NC(C)(C)C)N(C)CCc1ccccc1 | 1700 nM |  | 
CC(C)C[C@@H](C(=O)N[C@@H](Cc1ccc(OC(=O)c2ccccc2)cc1)C(=O)NC(C)(C)C)N(C)CC1CCCCC1 | 680 nM | 100% | 20%
CC(C)C[C@@H](C(=O)N[C@@H](Cc1ccc(OC(=O)c2ccccc2)cc1)C(=O)NC(C)(C)C)N(C)CCCc1ccccc1 | 1900 nM |  | 
CC(C)C[C@@H](C(=O)N[C@@H](Cc1ccc(OC(=O)c2ccccc2)cc1)C(=O)NC(C)(C)C)N(C)Cc1cccc(Cl)c1 | 1000 nM |  | 

Now those with a lower IC50 [1], led by results:

IC50 [1] | Structure (SMILES) | Protection (Mus musculus [2]) | Protection (Mus musculus [3])
560 nM | CC(C)C[C@@H](C(=O)N[C@@H](Cc1ccc(OC(=O)c2ccccc2)cc1)C(=O)NC(C)(C)C)N(C)Cc1ccccc1Cl |  | 
500 nM | COc1ccc(CN(C)[C@@H](CC(C)C)C(=O)N[C@@H](Cc2ccc(OC(=O)c3ccccc3)cc2)C(=O)NC(C)(C)C)cc1 | 100% | 40%
360 nM | CC(C)C[C@@H](C(=O)N[C@@H](Cc1ccc(OC(=O)c2ccccc2)cc1)C(=O)NC(C)(C)C)N(C)Cc1ccccc1 |  | 
280 nM | CC(C)C[C@@H](C(=O)N[C@@H](Cc1ccc(OC(=O)c2ccccc2)cc1)C(=O)NC(C)(C)C)N(C)Cc1ccc(N(C)C)cc1 | 80% | 
230 nM | CC(C)C[C@@H](C(=O)N[C@@H](Cc1ccc(OC(=O)c2ccccc2)cc1)C(=O)NC(C)(C)C)N(C)Cc1ccc(Cl)cc1 |  | 
130 nM | CC(C)C[C@@H](C(=O)N[C@@H](Cc1ccc(OC(=O)c2ccccc2)cc1)C(=O)NC(C)(C)C)N(C)Cc1ccc(Br)cc1 |  | 
36 nM | CC(C)C[C@@H](C(=O)N[C@@H](Cc1ccc(OC(=O)c2ccccc2)cc1)C(=O)NC(C)(C)C)N(C)Cc1ccc(C(C)(C)C)cc1 | 60% | 
